Assay results as given in PubChem BioAssay AID330 (DTP/NCI, 2004).
Values joined by “and” are separate entries in the source; they are usually repeats but may differ in a detail not shown here. Equal values may be shown once. Inconclusive results and toxic doses are left out. The calls were made as follows: active = survival T/C of 150% or more; inactive = T/C below 125% in these data.

System: P388 leukemia ip, CD2F1 mice, survival T/C
Assay: NCI In Vivo Anticancer Drug Screen. Data for tumor model P388 Leukemia (intraperitoneal) in CD2F1 (CDF1) mice
Settings: endpoint: median survival time, higher = longer survival
Outline: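 Mice carrying the transplanted tumor received test compound or vehicle. Survival was recorded in each group, and the value is the treated-group measurement divided by that of the vehicle-treated control group.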

[1] = dose: 50.0 mg/kg/injection, schedule: Q01DX005 (ip), vehicle: saline with Tween-80
[2] = dose: 200.0 mg/kg/injection, schedule: Q01DX005 (ip), vehicle: saline with Tween-80
[3] = dose: 1.25 mg/kg/injection, schedule: Q01DX009 (ip), vehicle: saline
[4] = dose: 12.5 mg/kg/injection, schedule: Q01DX009 (ip), vehicle: saline with Tween-80
[5] = dose: 25.0 mg/kg/injection, schedule: Q01DX009 (ip), vehicle: saline with Tween-80
[6] = dose: 50.0 mg/kg/injection, schedule: Q01DX009 (ip), vehicle: saline with Tween-80
[7] = dose: 100.0 mg/kg/injection, schedule: Q01DX009 (ip), vehicle: saline with Tween-80
[8] = dose: 50.0 mg/kg/injection, schedule: Q01DX009 (ip), vehicle: saline
[9] = dose: 60.0 mg/kg/injection, schedule: Q01DX005 (ip), vehicle: Klucel (hydroxypropylcellulose) (HPC)
[10] = dose: 120.0 mg/kg/injection, schedule: Q01DX005 (ip), vehicle: Klucel (hydroxypropylcellulose) (HPC)
[11] = dose: 240.0 mg/kg/injection, schedule: Q01DX005 (ip), vehicle: Klucel (hydroxypropylcellulose) (HPC)
[12] = dose: 50.0 mg/kg/injection, schedule: Q01DX005 (ip), vehicle: Klucel (hydroxypropylcellulose) (HPC)
[13] = dose: 100.0 mg/kg/injection, schedule: Q01DX005 (ip), vehicle: Klucel (hydroxypropylcellulose) (HPC)
[14] = dose: 60.0 mg/kg/injection, schedule: Q01DX005 (ip), vehicle: saline
[15] = dose: 120.0 mg/kg/injection, schedule: Q01DX005 (ip), vehicle: saline
[16] = dose: 240.0 mg/kg/injection, schedule: Q01DX005 (ip), vehicle: saline
[17] = dose: 100.0 mg/kg/injection, schedule: Q04DX002 (ip), vehicle: saline with Tween-80

Measured: T/C

Fc1ccc(Nc2nnc(-c3ccc(Cl)cc3Cl)o2)cc1
inactive: dose: 12.5 mg/kg/injection, schedule: Q01DX005 (ip), vehicle: saline with Tween-80 97 % of control | dose: 25.0 mg/kg/injection, schedule: Q01DX005 (ip), vehicle: saline with Tween-80 99 % of control | [1] 93 % of control and 97 % of control | [2] 96 % of control

C[C@]12CC[C@H]3[C@@H](CCC4=C[C@@H](OC5OCC(OC6OC(CO)C(O)C(O)C6O)C(O)C5O)CC[C@@]43C=O)[C@@]1(O)CCC2C1=CC(=O)OC1 (some centres not stated)
inactive: dose: 0.16 mg/kg/injection, schedule: Q01DX009 (ip), vehicle: saline 105 % of control | dose: 0.25 mg/kg/injection, schedule: Q01DX009 (ip), vehicle: saline with Tween-80 95 % of control | dose: 0.31 mg/kg/injection, schedule: Q01DX009 (ip), vehicle: saline 108 % of control | dose: 0.5 mg/kg/injection, schedule: Q01DX009 (ip), vehicle: saline with Tween-80 107 % of control and 95 % of control | dose: 0.63 mg/kg/injection, schedule: Q01DX009 (ip), vehicle: saline 103 % of control | dose: 1.0 mg/kg/injection, schedule: Q01DX009 (ip), vehicle: saline with Tween-80 117 % of control and 97 % of control | [3] 103 % of control

CC1CC=[N+]([O-])C1(C)C (configuration not stated)
inactive: [4] 95 % of control | [5] 102 % of control | [6] 102 % of control and 86 % of control

CC/C(=N\NC(N)=NC)c1ccc(Cl)cc1
inactive: dose: 25.0 mg/kg/injection, schedule: Q04DX002 (ip), vehicle: saline 101 % of control

Nc1nc2c(c(=O)[nH]1)NC(CCNc1ccc(C(=O)NC(CCC(=O)O)C(=O)O)cc1)CN2 (configuration not stated)
inactive: [5] 100 % of control | [6] 104 % of control and 118 % of control | dose: 100.0 mg/kg/injection, schedule: Q01DX009 (ip), vehicle: saline sonified 113 % of control | [7] 122 % of control

CC1=CC(=O)NC1O (configuration not stated)
inactive: dose: 2.5 mg/kg/injection, schedule: Q01DX010 (ip), vehicle: saline 104 % of control | dose: 5.0 mg/kg/injection, schedule: Q01DX010 (ip), vehicle: saline 95 % of control | dose: 10.0 mg/kg/injection, schedule: Q01DX010 (ip), vehicle: saline 90 % of control | dose: 15.0 mg/kg/injection, schedule: Q01DX010 (ip), vehicle: saline 95 % of control | dose: 23.0 mg/kg/injection, schedule: Q01DX009 (ip), vehicle: saline 95 % of control | dose: 35.0 mg/kg/injection, schedule: Q01DX009 (ip), vehicle: saline 86 % of control | [8] 104 % of control

COC(=O)C1(CC(=O)C2CC2)NC(=S)NC(=O)C1C#N (configuration not stated)
inactive: [9] 103 % of control | [10] 100 % of control | [11] 100 % of control

CCN(CC)Cc1cc(N=Nc2c(O)ccc3c(N=Nc4ccc(O)c(CN(CC)CC)c4)c(O)ccc23)ccc1O
inactive: [12] 108 % of control | [13] 109 % of control

CCOc1cccc2c1C(=O)c1c(OCC)c3c(c(OCC)c1C2=O)CC(O)(C(C)=O)CC3O (configuration not stated)
inactive: dose: 1.56 mg/kg/injection, schedule: Q01DX009 (ip), vehicle: other 99 % of control | dose: 3.13 mg/kg/injection, schedule: Q01DX009 (ip), vehicle: other 102 % of control | dose: 6.25 mg/kg/injection, schedule: Q01DX009 (ip), vehicle: other 93 % of control | dose: 12.5 mg/kg/injection, schedule: Q01DX009 (ip), vehicle: other 96 % of control | dose: 25.0 mg/kg/injection, schedule: Q01DX009 (ip), vehicle: other 90 % of control

CN(C)C(=O)N1OC2CCC1CC2
inactive: [14] 100 % of control | [15] 100 % of control | [16] 100 % of control

S=c1nc(-c2nc(=S)[nH]c3c2CCCCCCCCCC3)c2c([nH]1)CCCCCCCCCC2
inactive: [9] 99 % of control | [10] 92 % of control | [11] 93 % of control

COC(=O)c1[nH]c(=O)c2ccc([N+](=O)[O-])cc2c1O
inactive: [6] 86 % of control | [7] 88 % of control | dose: 200.0 mg/kg/injection, schedule: Q01DX009 (ip), vehicle: saline with Tween-80 86 % of control

COc1cc(C2(C3CC(=O)OC3COC(c3ccccc3)(c3ccccc3)c3ccccc3)SCCCS2)cc(OC)c1OC (configuration not stated)
inactive: [17] 88 % of control

Cc1cc(C2=NCC(C)S2)ccc1OCCSCCOc1ccc(C2=NCC(C)S2)cc1C (configuration not stated)
inactive: [4] 92 % of control | [5] 92 % of control

CCOC1=C(N2CC2)C(=O)C(OCC)=C(N2CC2)C1=O
active: [3] 171 % of control | dose: 2.5 mg/kg/injection, schedule: Q01DX009 (ip), vehicle: saline 242 % of control

CCCCCCCCCCCCCCCC[N+]1(CCCCCCCCCCCC)CCSCC1 (tested in a mixture with another compound)
inactive: dose: 10.0 mg/kg/injection, schedule: Q01DX009 (ip), vehicle: saline with Tween-80 112 % of control | dose: 40.0 mg/kg/injection, schedule: Q01DX009 (ip), vehicle: saline with Tween-80 121 % of control

C=C[Se](=C(C(=O)c1ccccc1)C(=O)c1ccccc1)c1ccccc1 (configuration not stated)
inactive: dose: 6.25 mg/kg/injection, schedule: Q01DX009 (ip), vehicle: saline 96 % of control | dose: 12.5 mg/kg/injection, schedule: Q01DX009 (ip), vehicle: saline 103 % of control | dose: 25.0 mg/kg/injection, schedule: Q01DX009 (ip), vehicle: saline 99 % of control | [8] 107 % of control | dose: 100.0 mg/kg/injection, schedule: Q01DX009 (ip), vehicle: saline 113 % of control | dose: 200.0 mg/kg/injection, schedule: Q01DX009 (ip), vehicle: saline 113 % of control

Nc1nc(Sc2ccc([N+](=O)[O-])c3nonc23)c2[nH]cnc2n1
inactive: dose: 12.5 mg/kg/injection, schedule: Q01DX009 (ip), vehicle: Klucel (hydroxypropylcellulose) (HPC) 115 % of control | dose: 25.0 mg/kg/injection, schedule: Q01DX009 (ip), vehicle: Klucel (hydroxypropylcellulose) (HPC) 88 % of control

O=S(=O)(O)C(O)C(F)(F)C(F)(F)C(F)(F)F (configuration not stated)
inactive: [14] 98 % of control | [15] 94 % of control | [16] 99 % of control

CCOC(=O)COC(=O)C1C(C(N)=O)N(CC(=O)OCC)CCN1CC(=O)OCC (configuration not stated)
inactive: [1] 101 % of control | dose: 100.0 mg/kg/injection, schedule: Q01DX005 (ip), vehicle: saline with Tween-80 99 % of control | [2] 103 % of control

COC(/C=N/OC(C)=O)c1ccccc1 (configuration not stated)
inactive: dose: 25.0 mg/kg/injection, schedule: Q04DX003 (ip), vehicle: saline with Tween-80 98 % of control and 99 % of control | dose: 50.0 mg/kg/injection, schedule: Q04DX003 (ip), vehicle: saline with Tween-80 102 % of control and 92 % of control

COc1ccc(C2OCC3C2CO[C@H]3c2ccc(OC)c(OC)c2)cc1OC (mixture of isomers)
inactive: dose: 8.0 mg/kg/injection, schedule: Q01DX009 (ip), vehicle: Klucel (hydroxypropylcellulose) (HPC) 90 % of control | dose: 16.0 mg/kg/injection, schedule: Q01DX009 (ip), vehicle: Klucel (hydroxypropylcellulose) (HPC) 97 % of control | dose: 32.0 mg/kg/injection, schedule: Q01DX009 (ip), vehicle: Klucel (hydroxypropylcellulose) (HPC) 91 % of control | dose: 64.0 mg/kg/injection, schedule: Q01DX009 (ip), vehicle: Klucel (hydroxypropylcellulose) (HPC) 89 % of control

COc1cc(O)c2c(O)c3c(=O)cc(C)oc3cc2c1
inactive: [5] 102 % of control | [6] 109 % of control | [7] 112 % of control

CC(Nc1ncnc2c1CCc1ccccc1-2)C(=O)O (configuration not stated)
inactive: [17] 100 % of control | dose: 200.0 mg/kg/injection, schedule: Q04DX002 (ip), vehicle: saline with Tween-80 94 % of control

CC(=O)O[C@H]1CC[C@]2(C)C34OC3C[C@]3(C)[C@@H](C(C)=O)CC[C@H]3[C@]43C=C[C@@]2(C1)C1C(=O)OC(=O)C13 (some centres not stated)
inactive: [12] 112 % of control | [13] 106 % of control

CC(N)C(=O)OCN1C(=O)C2C3C=CC(C2C1=O)C1C2C(=O)N(COC(=O)C(C)N)C(=O)C2C31 (configuration not stated)
active: dose: 100.0 mg/kg/injection, schedule: Q01DX009 (ip), vehicle: water 178 % of control and 193 % of control
inactive: dose: 25.0 mg/kg/injection, schedule: Q01DX009 (ip), vehicle: water 109 % of control and 112 % of control | dose: 50.0 mg/kg/injection, schedule: Q01DX009 (ip), vehicle: water 108 % of control
